Results published in EP0745595A1, “3-(3-Aryloxyphenyl)-1-(substituted methyl)-s-triazine-2,4,6-oxo or thiotrione herbicidal agents” (American Cyanamid Company, priority 1995, dated 1996).

Key:
Assay type in all cases: in vivo
[1] = test system: GLYCINE MAX(L) MERR. CV. WILLIAMS; assay: Postemergence herbicidal evaluation, GLXMAW (Soybean, Williams); set-up: key to GLXMAW rating / Herbicidal effect rating, GLXMAW / GLXMAW: 0-9 visual rating scale vs untreated control
In short: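 Soybean seedlings (Williams) were raised in jiffy flats for roughly two weeks, then sprayed postemergence through a nozzle at 40 psi with test compound dispersed in 50/50 acetone/water containing 0.5% TWEEN®20. Treated plants were kept on greenhouse benches under normal care and visually rated on a 0-9 scale four to five weeks later.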

[2] = test system: ORYZA SATIVA, L. TEBONNET; assay: Postemergence herbicidal evaluation, ORYSAT (Rice, Tebonnet); set-up: key: 0-9 visual rating scale vs untreated control
Method: In the tests, seedling plants are grown in jiffy flats for about two weeks. The test compounds are dispersed in 50/50 acetone/water mixtures containing 0.5% TWEEN®20, a polyoxyethylene sorbitan monolaurate surfactant of Atlas Chemical Industries, in sufficient quantities to provide the equivalent of about 0.125 kg to 0.500 kg per hectare of active compound when applied to the plants through a spray nozzle operating at 40 psi for a predetermined time. After spraying, the plants are placed on greenhouse benches and are cared for in the usual manner, commensurate with conventional greenhouse practices. From four to five weeks after treatment, the seedling plants are examined and rated according to the rating system set forth below. Where more than one test is involved for a given compound, the data are averaged.
Plant species employed in these evaluations are reported by header abbreviation, common name and scientific name.
Results of herbicide evaluation are expressed on a rating scale (0-9). The scale is based upon a visual observation of plant stand, vigor, malformation, size, chlorosis and overall plant appearance as compared with a control.

CHENOPODIUM ALBUM, L. = assay: Preemergence herbicidal evaluation, CHEAL (Lambsquarters, Common);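 also: higher means more injury with 8 approaching complete kill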
In short: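 Preemergence, greenhouse: seed + potting soil sown on ~1 inch soil in cups; aqueous acetone spray, ~0.125–0.50 kg/ha equivalent; rated 0-9 vs control at 4–5 wk.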

ZEA MAYS L. = assay: Preemergence herbicidal evaluation, ZEAMX (Corn, Field)
In short: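 Corn (Zea mays) seeds were mixed with potting soil and planted on about one inch of soil in pint cups, then treated preemergence. Cups were kept on greenhouse benches, watered and maintained conventionally, and after four to five weeks were visually rated on a 0-9 scale versus an untreated control.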

[3] = test system: ECHINOCHLOA ORYZOIDES (ARD.)FRITSCH; assay: Preemergence weed control under flooded paddy conditions, ECHORC (Watergrass (Calif.)); conditions: pre-weed
In short: (§1)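 Seeds or propagules sown in top 0.5 cm of silt loam in undrained containers, flooded 1.5 to 3 cm throughout. Compounds in aqueous/acetone 50/50 v/v pipetted into flood water at about 0.5, 0.25, 0.125 and 0.063 kg/ha. Visual 0-9 rating versus control after three to four weeks in greenhouse.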

CASSIA OBTUSIFOLIA, L. = assay: Preemergence herbicidal evaluation, CASOB (Sicklepod)
In short: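 Seeds of various monocot and dicot plants, including sicklepod, were each mixed with potting soil and sown on roughly one inch of soil in separate pint cups for preemergence testing. Treated cups were kept on greenhouse benches, watered and maintained conventionally. Four to five weeks after treatment, each cup was visually rated on a 0-9 scale against a control.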

CYPERUS IRIA = assay: Preemergence weed control under flooded paddy conditions, CYPIR (Rice Flatsedge); conditions: pre-weed
In short: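 Seeds or propagating organs of rice flatsedge were planted in the top 0.5 cm of silt loam soil in 32 oz. plastic containers, 10.5 cm across and without drainage holes. Water was kept 1.5 to 3 cm above the soil throughout. Treated containers were kept on greenhouse benches, and herbicidal effect was visually rated on a 0-9 scale against a control.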

[4] = test system: CYPERUS SEROTINUS, ROTTB.; assay: Preemergence weed control under flooded paddy conditions, CYPSE (Flatsedge); conditions: pre-weed
In short: as §1

[…], PRESL. = Preemergence weed control under flooded paddy conditions, MOOVA (Monochoria); conditions: pre-weed
In short: as §1

SAGITTARIA PYGMAEA, L. = assay: Preemergence weed control under flooded paddy conditions, SAGPY (Arrowhead (Pygmaea)); conditions: pre-weed
In short: as §1

Cn1c(=O)[nH]c(=O)n(-c2cc(Oc3c(F)cc(C(F)(F)F)cc3Cl)ccc2[N+](=O)[O-])c1=O [D, reference compound]
GLXMAW ([1]; Rate 0.008 kg/ha): 2.5
GLXMAW ([1]; Rate 0.016 kg/ha): 4.2
GLXMAW ([1]; Rate 0.031 kg/ha): 4.5
GLXMAW ([1]; Rate 0.063 kg/ha): 4.7
GLXMAW ([1]; Rate 0.125 kg/ha): 5.5
ORYSAT ([2]; Rate 0.016 kg/ha): 3.8
ORYSAT ([2]; Rate 0.031 kg/ha): 4.3
ORYSAT ([2]; Rate 0.063 kg/ha): 4.8
ORYSAT ([2]; Rate 0.125 kg/ha): 5.3
CHEAL (CHENOPODIUM ALBUM, L.; Rate 0.031 kg/ha): 9.0
CHEAL (CHENOPODIUM ALBUM, L.; Rate 0.063 kg/ha): 9.0
CHEAL (CHENOPODIUM ALBUM, L.; Rate 0.125 kg/ha): 9.0
CHEAL (CHENOPODIUM ALBUM, L.; Rate 0.250 kg/ha): 9.0
ZEAMX (ZEA MAYS L.; Rate 0.031 kg/ha): 0.0
ZEAMX (ZEA MAYS L.; Rate 0.063 kg/ha): 0.0
ZEAMX (ZEA MAYS L.; Rate 0.125 kg/ha): 0.0
ZEAMX (ZEA MAYS L.; Rate 0.250 kg/ha): 0.0
ECHORC ([3]; Rate 0.031 kg/ha): 9.0
ECHORC ([3]; Rate 0.063 kg/ha): 9.0
ECHORC ([3]; Rate 0.125 kg/ha): 9.0
ECHORC ([3]; Rate 0.250 kg/ha): 9.0

Cn1c(=O)[nH]c(=O)n(-c2cccc(Oc3ccc(C(F)(F)F)cc3Cl)c2)c1=O [E, reference compound]
GLXMAW ([1]; Rate 0.063 kg/ha): 2.0
GLXMAW ([1]; Rate 0.125 kg/ha): 2.5
GLXMAW ([1]; Rate 0.250 kg/ha): 3.0
GLXMAW ([1]; Rate 0.500 kg/ha): 3.5
ORYSAT ([2]; Rate 0.063 kg/ha): 1.5
ORYSAT ([2]; Rate 0.125 kg/ha): 2.0
ORYSAT ([2]; Rate 0.250 kg/ha): 2.0
ORYSAT ([2]; Rate 0.500 kg/ha): 3.0
CASOB (CASSIA OBTUSIFOLIA, L.; Rate 0.125 kg/ha): 0.0
CASOB (CASSIA OBTUSIFOLIA, L.; Rate 0.250 kg/ha): 0.0
CASOB (CASSIA OBTUSIFOLIA, L.; Rate 0.500 kg/ha): 0.0
CASOB (CASSIA OBTUSIFOLIA, L.; Rate 1.000 kg/ha): 0.0
ECHORC ([3]; Rate 0.250 kg/ha): 0.0
ECHORC ([3]; Rate 0.500 kg/ha): 0.0
ECHORC ([3]; Rate 1.000 kg/ha): 0.0
CYPIR (CYPERUS IRIA; Rate 0.250 kg/ha): 0.0
CYPIR (CYPERUS IRIA; Rate 0.500 kg/ha): 0.0
CYPIR (CYPERUS IRIA; Rate 1.000 kg/ha): 0.0
CYPSE ([4]; Rate 0.250 kg/ha): 0.0
CYPSE ([4]; Rate 0.500 kg/ha): 0.0
CYPSE ([4]; Rate 1.000 kg/ha): 0.0
MOOVA ([…], PRESL.; Rate 0.250 kg/ha): 0.0
MOOVA ([…], PRESL.; Rate 0.500 kg/ha): 0.0
MOOVA ([…], PRESL.; Rate 1.000 kg/ha): 0.0
SAGPY (SAGITTARIA PYGMAEA, L.; Rate 0.250 kg/ha): 0.0
SAGPY (SAGITTARIA PYGMAEA, L.; Rate 0.500 kg/ha): 0.0
SAGPY (SAGITTARIA PYGMAEA, L.; Rate 1.000 kg/ha): 0.0

Cn1c(=O)[nH]c(=O)n(-c2cc(Oc3ccc(C(F)(F)F)cc3Cl)ccc2Cl)c1=O [F, reference compound]
GLXMAW ([1]; Rate 0.016 kg/ha): 3.5
GLXMAW ([1]; Rate 0.032 kg/ha): 3.5
GLXMAW ([1]; Rate 0.063 kg/ha): 4.5
GLXMAW ([1]; Rate 0.125 kg/ha): 4.0
GLXMAW ([1]; Rate 0.250 kg/ha): 5.5
GLXMAW ([1]; Rate 0.500 kg/ha): 5.5
ORYSAT ([2]; Rate 0.016 kg/ha): 1.5
ORYSAT ([2]; Rate 0.032 kg/ha): 1.5
ORYSAT ([2]; Rate 0.063 kg/ha): 2.5
ORYSAT ([2]; Rate 0.125 kg/ha): 3.0
ORYSAT ([2]; Rate 0.250 kg/ha): 3.0
ORYSAT ([2]; Rate 0.500 kg/ha): 3.0
CHEAL (CHENOPODIUM ALBUM, L.; Rate 0.063 kg/ha): 9.0
CHEAL (CHENOPODIUM ALBUM, L.; Rate 0.125 kg/ha): 9.0
CHEAL (CHENOPODIUM ALBUM, L.; Rate 0.250 kg/ha): 9.0
CHEAL (CHENOPODIUM ALBUM, L.; Rate 0.500 kg/ha): 9.0
ECHORC ([3]; Rate 0.031 kg/ha): 0.0
ECHORC ([3]; Rate 0.063 kg/ha): 0.0
ECHORC ([3]; Rate 0.125 kg/ha): 0.0
ECHORC ([3]; Rate 0.250 kg/ha): 0.0
CYPSE ([4]; Rate 0.031 kg/ha): 0.0
CYPSE ([4]; Rate 0.063 kg/ha): 0.0
CYPSE ([4]; Rate 0.125 kg/ha): 0.0
CYPSE ([4]; Rate 0.250 kg/ha): 0.0
SAGPY (SAGITTARIA PYGMAEA, L.; Rate 0.031 kg/ha): 0.0
SAGPY (SAGITTARIA PYGMAEA, L.; Rate 0.063 kg/ha): 0.0
SAGPY (SAGITTARIA PYGMAEA, L.; Rate 0.125 kg/ha): 0.0
SAGPY (SAGITTARIA PYGMAEA, L.; Rate 0.250 kg/ha): 0.0
